One assay concerns the target JNK2 (Homo sapiens (Human), UniProt P45984). The experiment in a line: JNK2 TR-FRET kinase assay (Example 14). Format: biochemical. Conditions: procedures of Example 14 (TR-FRET). The procedure, abridged: (§1)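 Two TR-FRET formats were used for each JNK isoform. In the direct one, preactivated aJNK phosphorylated EPIW-1 at about 1 mM final ATP (RT, 15 min). Both were EDTA-quenched and read by HTRF.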
On the technique in general: Time-resolved FRET reads energy transfer from a long-lived donor to a nearby acceptor.

The target of the next assay is JNK3 (Homo sapiens (Human), UniProt P53779). The experiment in a line: JNK3 TR-FRET kinase assay (Example 14). The conditions noted are these: procedures of Example 14 (TR-FRET). Format: biochemical. In short, it runs like this:
as §1

Assay [1] concerns phosphorylated c-jun (p-cjun). The experiment in a line: Inhibition of kainic acid induced phospho-cJun upregulation in mice hippocampi. Format: in vivo. Here is the method:
Female, FVB/N mice (Taconic) were treated by oral gavage (PO) with one 300 mg/kg dose of N-(4-chloro-3-(1H-1,2,4-triazol-5-yl)thiophen-2-yl)-2-(isoquinolin-5-yl)acetamide or vehicle (0.9% saline) at a 5 ml/kg dose volume. Control animals were dosed with vehicle. Thirty minutes later animals were treated interperitoneally with 25 mg/kg of kainic acid or saline at a 10 ml/kg dose volume. Kainic acid was formulated in 0.9% saline. Four hours after kainic acid administration animals were euthanized by carbon dioxide and were transcardially perfused with 0.9% saline. Brains were removed, and separated into left and right hemispheres. The hippocampus was dissected from the right hemisphere, frozen on dry ice and kept at −80° C. until used for quantitation of p-cjun levels.
Preweighed hippocampus tissues were homogenized in cold cell extraction buffer (CEB) containing 1% Triton X-100, 0.1% SDS, 0.5% deoxycholate, 20 mM Na4P2O7, 2 mM Na3VO4, 0.1% SDS and protease inhibitors (PI, 2 mg/mL aprotinin and 1 mg/mL leupeptin) at a ratio of 9:1 CEB to wet tissue weight. Homogenized samples were analyzed using PathScan Phospho-c-Jun (Ser63) Sandwich ELISA Kit II from Cell Signaling Technology. Samples were diluted 1:10 in sample diluent provided in the kit. An 8-point standard curve was prepared by diluting a 10 ng/mL phos-c-Jun standard 1:3 in 10% CEB/PI in sample diluent. Samples and standards were added at 100 μL per well to prewetted ELISA plates which contain a phos-c-jun (ser63)-specific rabbit monoclonal capture antibody and incubated overnight at 4° C. The plate was then allowed to warm to room temperature and washed three times using TBS+0.05% Tween 20 (TTBS). To each well were added 100 μL of a mouse monoclonal c-Jun detection antibody and the plate was incubated at 37° C. for 1 hour. The plate was washed three times in TTBS, then 100 μL per well of an anti-mouse IgG HRP-linked antibody was added. […] The colorimetric reaction was read using a Molecular Devices Spectramax plate reader and sample data was calculated from the standard curve fit to a 4-parameter function.

The target of another assay is JNK1 (Homo sapiens (Human), UniProt P45983). Nature of the assay: JNK1 TR-FRET kinase assay (Example 14). Format: biochemical. Conditions: procedures of Example 14 (TR-FRET). In short, it runs like this: as §1
Sequence of JNK1 (P45983 other isoform, or with tags, fused parts or gaps isoform P45983-2, species assumed): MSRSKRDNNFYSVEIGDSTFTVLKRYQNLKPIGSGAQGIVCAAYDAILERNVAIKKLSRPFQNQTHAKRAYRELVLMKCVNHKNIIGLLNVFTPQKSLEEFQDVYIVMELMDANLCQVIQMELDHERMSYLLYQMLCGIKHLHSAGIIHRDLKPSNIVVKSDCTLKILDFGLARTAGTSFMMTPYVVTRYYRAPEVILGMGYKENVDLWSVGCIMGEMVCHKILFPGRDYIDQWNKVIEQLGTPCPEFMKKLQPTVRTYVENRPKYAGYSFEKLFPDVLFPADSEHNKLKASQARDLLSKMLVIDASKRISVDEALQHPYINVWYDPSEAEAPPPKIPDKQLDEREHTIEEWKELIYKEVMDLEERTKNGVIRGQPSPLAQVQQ

Sequence of JNK2 (P45984 whole entry, species assumed, canonical isoform): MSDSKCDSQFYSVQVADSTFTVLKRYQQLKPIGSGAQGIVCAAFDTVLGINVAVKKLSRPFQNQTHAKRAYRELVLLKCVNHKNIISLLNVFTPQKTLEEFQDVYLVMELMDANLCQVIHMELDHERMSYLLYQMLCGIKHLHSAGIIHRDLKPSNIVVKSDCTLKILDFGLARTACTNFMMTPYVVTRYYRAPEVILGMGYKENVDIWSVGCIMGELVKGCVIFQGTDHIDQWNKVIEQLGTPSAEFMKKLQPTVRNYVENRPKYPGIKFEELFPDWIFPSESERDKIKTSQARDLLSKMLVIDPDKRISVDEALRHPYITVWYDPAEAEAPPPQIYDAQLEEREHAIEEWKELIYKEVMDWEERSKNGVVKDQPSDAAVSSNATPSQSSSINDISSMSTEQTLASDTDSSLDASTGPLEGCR
Sequence of JNK3 (P53779 whole entry, species assumed): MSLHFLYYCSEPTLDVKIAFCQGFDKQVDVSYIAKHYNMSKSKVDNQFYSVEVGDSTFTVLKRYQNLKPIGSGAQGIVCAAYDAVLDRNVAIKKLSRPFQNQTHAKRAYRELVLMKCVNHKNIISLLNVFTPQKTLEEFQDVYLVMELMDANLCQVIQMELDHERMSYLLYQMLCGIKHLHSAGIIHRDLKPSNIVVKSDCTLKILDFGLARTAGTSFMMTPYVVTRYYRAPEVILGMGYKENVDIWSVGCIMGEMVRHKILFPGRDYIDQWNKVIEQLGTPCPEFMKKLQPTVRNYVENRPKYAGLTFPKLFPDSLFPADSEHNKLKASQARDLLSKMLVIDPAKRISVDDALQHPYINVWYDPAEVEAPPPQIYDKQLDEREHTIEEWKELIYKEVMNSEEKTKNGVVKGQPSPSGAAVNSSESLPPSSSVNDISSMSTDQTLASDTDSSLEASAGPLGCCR

The IC50 is the concentration needed to halve the response being measured. Low readings indicate higher potency, high ones lower potency. With `O=C(Cc1cccc2cnccc12)Nc1scc(Cl)c1-c1ncn[nH]1` [N-(4-chloro-3-(1H-1,2,4-triazol-5-yl)thiophen-2-yl)-2-(isoquinolin-5-yl)acetamide], the IC50 against JNK2, on JNK3 and against JNK1 was less than 100 nM each time. For the same molecule, in assay [1] (FVB mice, 300 mg/kg, 4 hours after treatment with kainic acid, statistically significant (unpaired t-test)), the “reduction of p-cjun in the hippocampus” value is reported as 51%. Besides, the “p-cJun Mean” value in assay [1] (female FVB/N mice, 300 mg/kg PO 30 min before 25 mg/kg kainic acid i.p., hippocampus 4 h after kainic acid) is 0.927 ng/mL. Also, the “p-cJun % of Vehicle” value in assay [1] (female FVB/N mice, 300 mg/kg PO, hippocampus 4 h after kainic acid, relative to kainic acid + vehicle group) was determined as 49.2%.
With `N#Cc1csc(NC(=O)CN2C(=O)CCc3ccccc32)c1-c1ncn[nH]1` [N-(4-cyano-3-(1H-1,2,4-triazol-5-yl)thiophen-2-yl)-2-(2-oxo-3,4-dihydroquinolin-1(2H)-yl)acetamide], the IC50 on JNK2, on JNK3 and against JNK1 was less than 100 nM throughout.
As to `O=C(Cn1c(=O)ccc2nc(C(F)(F)F)ccc21)Nc1scc(Br)c1-c1ncn[nH]1` [N-(4-bromo-3-(1H-1,2,4-triazol-5-yl)thiophen-2-yl)-2-(2-oxo-6-(trifluoromethyl)-1,5-naphthyridin-1(2H)-yl)acetamide], the IC50 against JNK2, against JNK3 and against JNK1 was less than 100 nM each time.
On to `C#Cc1ccc2c(ccc(=O)n2CC(=O)Nc2scc(Br)c2-c2ncn[nH]2)c1` [N-(4-bromo-3-(1H-1,2,4-triazol-5-yl)thiophen-2-yl)-2-(6-ethynyl-2-oxoquinolin-1(2H)-yl)acetamide], for which the half-maximal inhibitory concentration (IC50) against JNK2, against JNK3 and on JNK1 was less than 100 nM each time.
On to `O=C(Cc1cc2ncccc2cc1F)Nc1scc(Br)c1-c1ncn[nH]1` [N-(4-bromo-3-(1H-1,2,4-triazol-5-yl)thiophen-2-yl)-2-(6-fluoroquinolin-7-yl)acetamide], for which the IC50 on JNK2 was 100 to 10000 nM; against JNK3, 100 to 10000 nM; on JNK1 it was less than 100 nM.
For the molecule `O=C(Cn1c(=O)ccc2cc(OC(F)(F)F)ccc21)Nc1scc(Br)c1-c1ncn[nH]1` [N-(4-bromo-3-(1H-1,2,4-triazol-5-yl)thiophen-2-yl)-2-(2-oxo-6-(trifluoromethoxy)quinolin-1(2H)-yl)acetamide], the IC50 against JNK2, at JNK3 and against JNK1 was less than 100 nM in each case.
With `O=C(Cc1cccc2ncccc12)Nc1scc(Cl)c1-c1ncn[nH]1` [N-(4-chloro-3-(1H-1,2,4-triazol-5-yl)thiophen-2-yl)-2-(quinolin-5-yl)acetamide], the IC50 on JNK2, at JNK3 and against JNK1 was less than 100 nM each time.
Regarding `Cn1cnc(-c2c(C#N)csc2NC(=O)CN2C(=O)CCc3ncccc32)n1` [N-(4-cyano-3-(1-methyl-1H-1,2,4-triazol-3-yl)thiophen-2-yl)-2-(2-oxo-3,4-dihydro-1,5-naphthyridin-1(2H)-yl)acetamide], the IC50 against JNK2, at JNK3 and at JNK1 was less than 100 nM throughout.
As for `O=C(Cc1cccc2ccccc12)Nc1ccsc1-c1nnco1` [N-(2-(1,3,4-oxadiazol-2-yl)thiophen-3-yl)-2-(naphthalen-1-yl)acetamide], the IC50 on JNK2 was more than 10000 nM; at JNK3, 100 to 10000 nM; at JNK1 it was 100 to 10000 nM.
For the molecule `O=C(CN1C(=O)CCc2ncccc21)Nc1scc(Br)c1-c1ncn[nH]1` [N-(4-bromo-3-(1H-1,2,4-triazol-5-yl)thiophen-2-yl)-2-(2-oxo-3,4-dihydro-1,5-naphthyridin-1(2H)-yl)acetamide], the IC50 on JNK2, at JNK3 and against JNK1 was less than 100 nM each time.
Regarding `COCn1nnnc1-c1ccsc1NC(=O)Cc1ccc(OC)cc1` [N-(3-(1-(methoxymethyl)-1H-tetrazol-5-yl)thiophen-2-yl)-2-(4-methoxyphenyl)acetamide], the results for the half-inhibitory concentration (IC50) at JNK2, on JNK3 and at JNK1 were more than 50000 nM, 100 to 10000 nM and 100 to 10000 nM, respectively.
On to `Cc1n[nH]c(-c2c(C)csc2NC(=O)Cc2cccc3ncccc23)n1` [N-(4-methyl-3-(3-methyl-1H-1,2,4-triazol-5-yl)thiophen-2-yl)-2-(quinolin-5-yl)acetamide], for which the IC50 at JNK2 was 100 to 10000 nM; on JNK3, less than 100 nM; against JNK1 it was less than 100 nM.
Turning to `CC(C)c1n[nH]c(-c2c(Cl)csc2NC(=O)CN2C(=O)CCc3ncccc32)n1` [N-(4-chloro-3-(3-isopropyl-1H-1,2,4-triazol-5-yl)thiophen-2-yl)-2-(2-oxo-3,4-dihydro-1,5-naphthyridin-1(2H)-yl)acetamide], the IC50 is 100 to 10000 nM against JNK2, 100 to 10000 nM against JNK3 and less than 100 nM against JNK1.
Consider `N#Cc1ccc2c(ccc(=O)n2CC(=O)Nc2scc(Cl)c2-c2nc[nH]n2)c1` [N-(4-chloro-3-(1H-1,2,4-triazol-3-yl)thiophen-2-yl)-2-(6-cyano-2-oxoquinolin-1(2H)-yl)acetamide], for which the IC50 against JNK2, on JNK3 and against JNK1 was less than 100 nM throughout.
With `COc1ccc(CC(=O)Nc2ccsc2-c2nnc(C)o2)cc1` [2-(4-methoxyphenyl)-N-(2-(5-methyl-1,3,4-oxadiazol-2-yl)thiophen-3-yl)acetamide], the concentration for half-maximal inhibition (IC50) at JNK2 is more than 50000 nM; on JNK3, 100 to 10000 nM; against JNK1, 100 to 10000 nM.
Regarding `O=C(Cn1c(=O)ccc2ncccc21)Nc1scc(Br)c1-c1ncn[nH]1` [N-(4-bromo-3-(1H-1,2,4-triazol-5-yl)thiophen-2-yl)-2-(2-oxo-1,5-naphthyridin-1(2H)-yl)acetamide], the IC50 against JNK2, against JNK3 and against JNK1 was less than 100 nM throughout.
Regarding `O=C(Cn1c(=O)ccc2cc(Br)ccc21)Nc1scc(Cl)c1-c1nc[nH]n1` [2-(6-bromo-2-oxoquinolin-1(2H)-yl)-N-(4-chloro-3-(1H-1,2,4-triazol-3-yl)thiophen-2-yl)acetamide], the IC50 against JNK2, at JNK3 and against JNK1 was less than 100 nM each time.
On to `O=C(Cc1cccc2cnccc12)Nc1ccsc1-c1csc(Cl)n1` [N-(2-(2-chlorothiazol-4-yl)thiophen-3-yl)-2-(isoquinolin-5-yl)acetamide], for which the IC50 is more than 10000 nM on JNK2, 100 to 10000 nM at JNK3 and 100 to 10000 nM against JNK1.
Turning to `O=C(CN1C(=O)CCc2ncccc21)Nc1scc(Cl)c1-c1nccs1` [N-(4-chloro-3-(thiazol-2-yl)thiophen-2-yl)-2-(2-oxo-3,4-dihydro-1,5-naphthyridin-1(2H)-yl)acetamide], the concentration for half-maximal inhibition (IC50) against JNK2, against JNK3 and on JNK1 was less than 100 nM in each case.

Source of the values: patent US9796706B2, “Inhibitors of Jun N-terminal kinase” (IMAGO PHARMACEUTICALS, INC., priority 2009, dated 2017).
